Test results reported in ChEMBL document CHEMBL1130681, “Synthesis of 5-substituted quinazolinone derivatives and their inhibitory activity in vitro” (Bioorg Med Chem Lett, 1998).

Columns and labels:
Type in all cases: functional, cell-based
L1210 = test: Concentration required to inhibit L1210 (mouse lymphocytic leukemia) cell lines
CCRF-CEM = test: Concentration required to inhibit CCRF-CEM (human leukemia) cell lines
LY3.7.2C TK-/- cell line = test: Concentration required to inhibit LY3.7.2C TK-/-(mouse lymphoma, thymidine kinase deficient) cell lines
HT-29 = test: Concentration required to inhibit HT-29 (human colon adenocarcinoma) cell lines

IC50 (L1210)	IC50 (CCRF-CEM)	IC50 (LY3.7.2C TK-/- cell line)	IC50 (HT-29)	Compound
500 nM	50 nM	700 nM	1200 nM	Cc1ccc2nc(N)nc(O)c2c1Sc1ccc(C(=O)N[C@H](C(=O)O)c2cccc(C(=O)O)c2)cc1
1100 nM	800 nM	1500 nM	3700 nM	Cc1ccc2nc(N)[nH]c(=O)c2c1Sc1ccncc1 [NOLATREXED]
2000 nM	1500 nM	300 nM	8400 nM	COC(=O)[C@@H](NC(=O)c1ccc(Sc2c(C)ccc3nc(N)nc(O)c23)cc1)c1cccc(O)c1
700 nM	200 nM	700 nM	600 nM	COC(=O)c1cccc([C@H](NC(=O)c2ccc(Sc3c(C)ccc4nc(N)nc(O)c34)cc2)C(=O)OC)c1
700 nM	3400 nM	600 nM	17000 nM	Cc1ccc2nc(N)nc(O)c2c1Sc1ccc(C(=O)N[C@H](C(=O)O)c2cccc(O)c2)cc1
400 nM	200 nM	500 nM	600 nM	COC(=O)[C@@H](NC(=O)c1ccc(Sc2c(C)ccc3nc(N)nc(O)c23)cc1)c1ccccc1
2000 nM	5400 nM	800 nM	> 20000 nM	Cc1ccc2nc(N)nc(O)c2c1Sc1ccc(C(=O)N[C@H](C(=O)O)c2ccccc2)cc1
